From PMC10661964 (Current Drug Metabolism, 2023)
Several values for one entry are separate records, joined by “and”; a condition that tells them apart may be missing. Equal values may be shown once. Read-outs that look alike come from different tables or passages of the source.

Tests used:
[1] = Quantification of nifurtimox and metabolites in human urine (LC-HRMS); assay type: in vivo; details: for AE,urine(0–24h), fasted patients: mean of 6 fasted patients with Chagas disease; for AE,urine(0–24h), fasted patients / AE,urine(0–24h), fed patients: single oral 120 mg nifurtimox; for AE,urine(0–24h), fed patients: mean of 6 fed patients with Chagas disease
Protocol: Urine samples were collected from fasted and fed patients pre-dose (0 h) and at four post-dose intervals (0-4, 4-8, 8-12, and 12-24 h) and stored frozen until required. For analysis, urine samples were thawed at room temperature and homogenized by vortex mixing. […] Equal volumes (75 µL) of an internal standard solution of [^2H8]-nifurtimox dissolved in water (10 µg/mL) were added to each urine, calibration, or control sample and mixed thoroughly. Samples from 6 patients were then analyzed using liquid chromatography-high-resolution mass spectrometry (LC-HRMS) with a 1290 Infinity LC system equipped with a diode array detector and an Orbitrap Fusion™ Lumos™ Tribrid™ HRMS (Thermo Fisher Scientific, Bremen, Germany) with a heated electrospray ionization source. For quantification, the LC conditions were as described above for analysis of rat plasma, and the HRMS parameters were: mass range, 120-600 Da in full scan mode and all ion fragmentation in positive ionization mode; resolution, 240,000; ion source voltage, 3500 V; capillary temperature, 300°C; source temperature, 60°C.
The system was calibrated using the relative peak area as a function of concentration, which was obtained by linear regression. Quantification was performed on a mass basis (μg/mL), with the final calculation for the percentage of dose excreted in urine made on a molar basis to account for the substantial differences (up to ~2.5-fold) in the molecular masses of the compounds of interest. The analytical precision for all analytes was in the range of 1.1% to 4.4%, with an accuracy of 94% to 107%. All concentrations in μg/mL were back-calculated to nmol/mL, and these concentrations were then used to calculate a total molar amount based on the urine volume collected during each interval.

[2] = Quantification of nifurtimox and metabolites in human plasma (LC-HRMS), plasma PK; assay type: in vivo; details: fed; for AUC(tlast-∞) (extrapolated proportion): pooled plasma of 6 patients, single oral 120 mg nifurtimox; for AUC, % of total quantified exposure: sum of AUC of nifurtimox and M-1 to M-6 = 100%, single oral 120 mg
Protocol: Plasma samples from timepoints 0, 0.25, 0.5, 0.75, 1, 1.5, 2, 2.5, 3, 4, 6, 8, 12, 15, and 24 h from 6 patients were analyzed. Blood samples were collected into lithium heparinized tubes. Blood cells and plasma were then separated by centrifugation, and the plasma was stored frozen until needed. For the analysis, plasma samples were thawed at room temperature and homogenized by vortex mixing. Equal volumes of plasma from the six patients for each timepoint were combined to a pooled volume of 200 µL. To precipitate protein, a 3-fold volume of acetonitrile/0.5% formic acid (v/v in water) was added to each pooled sample which was thoroughly mixed and then centrifuged at 20,000 g. […] For all analytes, the analytical precision ranged from 0.1% to 8.8%, and the accuracy was 95% to 108%.

[3] = target: T1, CYP 1A2 (Homo sapiens, UniProt P05177); assay: CYP inhibition with probe substrate; assay type: in vitro ADME; details: probe substrate phenacetin
T1 sequence (P05177 1-516): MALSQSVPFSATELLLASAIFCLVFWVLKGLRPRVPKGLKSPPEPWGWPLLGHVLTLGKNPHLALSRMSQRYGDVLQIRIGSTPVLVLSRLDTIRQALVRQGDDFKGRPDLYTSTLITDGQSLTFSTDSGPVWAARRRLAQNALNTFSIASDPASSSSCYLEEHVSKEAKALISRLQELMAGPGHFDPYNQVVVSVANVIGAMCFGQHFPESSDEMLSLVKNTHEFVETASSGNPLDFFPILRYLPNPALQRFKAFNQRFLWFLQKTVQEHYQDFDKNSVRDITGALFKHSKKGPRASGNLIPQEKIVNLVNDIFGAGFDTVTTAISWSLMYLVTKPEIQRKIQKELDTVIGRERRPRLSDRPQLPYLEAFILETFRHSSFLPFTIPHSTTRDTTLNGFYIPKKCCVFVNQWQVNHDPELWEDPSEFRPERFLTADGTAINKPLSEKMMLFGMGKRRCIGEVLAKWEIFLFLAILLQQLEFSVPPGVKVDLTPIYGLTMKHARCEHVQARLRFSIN
From the text: (§1) The inhibition of cytochrome P450 (CYP) isoforms and a range of cellular transporters (except multidrug and toxin extrusion [MATE] proteins), as well as the induction of CYP isoforms were investigated using previously described methods.

[4] = target: CYP 2D6 (Homo sapiens, UniProt P10635); assay: CYP inhibition with probe substrate; assay type: in vitro ADME; details: probe substrate dextromethorphan
CYP 2D6, sequence (P10635 whole entry): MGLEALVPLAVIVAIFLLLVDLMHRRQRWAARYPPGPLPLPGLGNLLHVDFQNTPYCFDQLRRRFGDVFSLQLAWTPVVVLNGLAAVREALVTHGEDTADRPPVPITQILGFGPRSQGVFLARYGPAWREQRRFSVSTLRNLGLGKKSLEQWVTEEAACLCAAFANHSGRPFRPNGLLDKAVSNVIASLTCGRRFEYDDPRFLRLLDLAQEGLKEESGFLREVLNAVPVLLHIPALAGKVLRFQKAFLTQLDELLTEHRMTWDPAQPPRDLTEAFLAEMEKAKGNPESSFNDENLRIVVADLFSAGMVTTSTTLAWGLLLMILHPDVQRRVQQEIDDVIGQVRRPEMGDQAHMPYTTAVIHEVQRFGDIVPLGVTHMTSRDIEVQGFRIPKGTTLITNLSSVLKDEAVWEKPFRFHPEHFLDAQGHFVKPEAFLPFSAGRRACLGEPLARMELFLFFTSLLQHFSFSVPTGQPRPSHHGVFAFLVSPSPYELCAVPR
From the text: as §1

[5] = target: CYP 2E1 (Homo sapiens, UniProt P05181); assay: CYP inhibition with probe substrate; assay type: in vitro ADME; details: coincubation, probe substrate chlorzoxazone; read-out: Co- IC50
CYP 2E1, sequence (P05181 whole entry): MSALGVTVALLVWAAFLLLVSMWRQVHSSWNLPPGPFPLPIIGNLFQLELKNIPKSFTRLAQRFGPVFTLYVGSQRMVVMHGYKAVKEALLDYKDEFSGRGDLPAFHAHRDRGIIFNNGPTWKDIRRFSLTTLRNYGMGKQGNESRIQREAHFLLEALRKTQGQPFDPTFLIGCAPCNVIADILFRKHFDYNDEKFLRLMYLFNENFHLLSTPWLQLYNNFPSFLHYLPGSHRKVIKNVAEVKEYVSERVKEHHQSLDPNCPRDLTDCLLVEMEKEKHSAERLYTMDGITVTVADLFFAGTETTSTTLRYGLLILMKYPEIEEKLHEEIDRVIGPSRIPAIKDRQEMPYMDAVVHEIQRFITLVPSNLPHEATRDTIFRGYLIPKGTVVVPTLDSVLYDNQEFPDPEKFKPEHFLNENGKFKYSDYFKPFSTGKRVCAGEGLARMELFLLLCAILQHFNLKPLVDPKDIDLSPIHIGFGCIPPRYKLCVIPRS
From the text: as §1

[6] = tested on: human CYP enzymes; assay: CYP induction, all isoforms tested (summary); assay type: in vitro ADME
From the text: as §1

[7] = target: T2, BCRP (Homo sapiens, UniProt Q9UNQ0); assay: Efflux transporter inhibition; assay type: in vitro ADME
T2 sequence (Q9UNQ0 1-655): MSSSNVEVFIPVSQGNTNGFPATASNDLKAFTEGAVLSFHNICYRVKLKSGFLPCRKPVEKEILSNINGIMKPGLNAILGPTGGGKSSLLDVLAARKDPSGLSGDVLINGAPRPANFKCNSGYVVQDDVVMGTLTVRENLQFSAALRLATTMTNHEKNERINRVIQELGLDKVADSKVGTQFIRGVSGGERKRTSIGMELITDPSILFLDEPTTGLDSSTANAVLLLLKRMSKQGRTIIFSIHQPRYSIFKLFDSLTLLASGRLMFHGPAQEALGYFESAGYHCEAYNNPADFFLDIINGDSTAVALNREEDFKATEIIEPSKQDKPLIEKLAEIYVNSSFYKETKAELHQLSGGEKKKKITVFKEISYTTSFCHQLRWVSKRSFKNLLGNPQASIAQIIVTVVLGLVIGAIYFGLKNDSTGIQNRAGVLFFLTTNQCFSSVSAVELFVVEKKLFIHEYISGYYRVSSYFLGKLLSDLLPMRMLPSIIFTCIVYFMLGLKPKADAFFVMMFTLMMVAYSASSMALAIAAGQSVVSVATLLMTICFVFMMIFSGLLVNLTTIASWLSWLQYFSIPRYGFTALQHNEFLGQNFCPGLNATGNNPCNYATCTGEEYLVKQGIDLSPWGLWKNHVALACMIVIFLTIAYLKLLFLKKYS
From the text: as §1

[8] = target: P-gp (Homo sapiens, UniProt P08183); assay: Efflux transporter inhibition; assay type: in vitro ADME
P-gp, sequence (P08183 whole entry): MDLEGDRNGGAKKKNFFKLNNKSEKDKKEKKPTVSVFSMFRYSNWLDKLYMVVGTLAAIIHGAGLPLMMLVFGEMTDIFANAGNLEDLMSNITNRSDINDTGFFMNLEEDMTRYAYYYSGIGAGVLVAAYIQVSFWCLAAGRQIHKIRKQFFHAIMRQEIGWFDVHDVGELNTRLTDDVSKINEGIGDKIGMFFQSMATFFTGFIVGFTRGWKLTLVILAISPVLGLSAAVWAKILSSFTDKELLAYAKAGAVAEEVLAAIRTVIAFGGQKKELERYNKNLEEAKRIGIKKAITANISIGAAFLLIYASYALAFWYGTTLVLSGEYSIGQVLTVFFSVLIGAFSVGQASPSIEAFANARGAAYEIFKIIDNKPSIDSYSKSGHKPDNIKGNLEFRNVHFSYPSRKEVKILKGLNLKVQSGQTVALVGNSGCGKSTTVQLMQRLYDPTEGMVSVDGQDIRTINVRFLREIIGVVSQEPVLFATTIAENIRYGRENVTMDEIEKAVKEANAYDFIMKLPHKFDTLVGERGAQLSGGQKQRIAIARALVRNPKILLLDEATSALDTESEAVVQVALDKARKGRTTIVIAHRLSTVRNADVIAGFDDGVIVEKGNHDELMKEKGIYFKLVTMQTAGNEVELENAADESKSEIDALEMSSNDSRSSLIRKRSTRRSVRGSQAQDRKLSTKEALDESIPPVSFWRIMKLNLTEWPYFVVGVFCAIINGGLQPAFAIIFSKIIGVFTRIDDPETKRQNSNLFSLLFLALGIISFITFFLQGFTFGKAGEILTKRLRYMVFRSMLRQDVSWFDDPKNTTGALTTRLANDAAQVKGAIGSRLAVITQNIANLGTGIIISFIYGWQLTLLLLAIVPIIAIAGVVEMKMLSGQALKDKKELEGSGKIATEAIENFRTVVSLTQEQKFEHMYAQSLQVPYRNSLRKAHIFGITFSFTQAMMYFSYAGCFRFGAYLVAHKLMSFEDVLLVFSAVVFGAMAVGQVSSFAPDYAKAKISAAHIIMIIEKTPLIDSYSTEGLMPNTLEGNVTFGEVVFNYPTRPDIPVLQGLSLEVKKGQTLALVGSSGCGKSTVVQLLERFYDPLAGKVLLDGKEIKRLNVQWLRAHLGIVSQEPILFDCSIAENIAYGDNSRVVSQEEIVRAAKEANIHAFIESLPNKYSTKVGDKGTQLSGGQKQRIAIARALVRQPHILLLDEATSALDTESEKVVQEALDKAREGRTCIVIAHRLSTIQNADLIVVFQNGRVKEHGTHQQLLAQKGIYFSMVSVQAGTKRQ
From the text: as §1

[9] = 30-min preincubation, read-out: Pre- IC50 (+ NADPH)
[10] = coincubation, read-out: Co- IC50
[11] = probe substrate digoxin, for M-4 the highest test concentration of 20 µM was not valid

Row | Structure (SMILES) | unchanged nifurtimox in urine, on average ([1]; fed and fasted patients, single oral 120 mg) | AE,urine(0–24h), fasted patients [1] | AE,urine(0–24h), fed patients [1] | AUC(tlast-∞) (extrapolated proportion) [2] [%] | AUC, % of total quantified exposure [2] | IC50 [3, 9] [µM] | IC50 [3, 10] [µM] | TDI (time-dependent inhibition) [3] | IC50 [4, 9] [µM] | IC50 [4, 10] [µM] | TDI (time-dependent inhibition) [4] | IC50 [5] [µM] | concentration up to which induction of CYP mRNA or activity was absent [6] | IC50 ([7]; probe substrate topotecan) [µM] | IC50 [8, 11] [µM] | IC50 ([8]; probe substrate dipyridamole) [µM] | IC50 ([7]; probe substrate fluvastatin) [µM]
1 | CC1CS(=O)(=O)CCN1/N=C/c1ccc([N+](=O)[O-])o1 (stereo not drawn) [Nifurtimox, (E)-N-(3-methyl-1,1-dioxo-1,4-thiazinan-4-yl)-1-(5-nitrofuran-2-yl) methanimine, reference compound] | less than 0.1 % of the administered dose | 0.03 % of dose | 0.07 % of dose | 0.6 | 16.9% | > 50 | > 50 | No | > 50 | > 50 | No | > 50 | up to 30 mg/L | > 100 | > 100 | > 100 | –
2 | CC1CS(=O)(=O)CCN1n1cc(SCC(N)C(=O)O)ccc1=O (stereo not drawn) [M-4] | – | 5.9 % of dose | 12.3 % of dose | 48.4 | 8.9% and 8.9^a % | > 20 | > 20 | No | > 20 | > 20 | No | > 20 | ≤ 80 mg/L | > 20 | > 5 | > 20 | > 20
3 | CC1CS(=O)(=O)CCN1N (stereo not drawn) [M-6] | – | 13.7 % of dose | 20.8 % of dose | 21.8 | 69.4% | > 100 | > 100 | No | > 100 | > 100 | No | > 100 | ≤ 90 mg/L | > 200 | > 200 | > 200 | > 200
